Structure (SMILES)	melting point [°C]
[O-][n+]1cccc2c1Nc1ncc(Cl)cc1C2(OCC1CC1)C(F)(F)F (stereo not drawn) [No. 201, 3-Chloro-10-cyclopropylmethoxy-10-trifluoromethyl-9,10-dihydro-1,8,9-triaza-anthracene 8-oxide]	68 to 69
[O-][n+]1cccc2c1Nc1ccc(Cl)cc1C2(OCC1CC1)C(F)F (stereo not drawn) [No. 184, 7-Chloro-5-cyclopropylmethoxy-5-difluoromethyl-5,10-dihydro-benzo[b][1,8]naphthyridine 1-oxide]	185 to 186
CC(C)COC1(C(F)(F)F)c2cccnc2Nc2ncc(Cl)cc21 (stereo not drawn) [No. 203, 3-Chloro-10-isobutoxy-10-trifluoromethyl-9,10-dihydro-1,8,9-triaza-anthracene]	166 to 167
[O-][n+]1cc(Cl)cc2c1Nc1ccc(Cl)cc1C2(OCC1CC1)C(F)F (stereo not drawn) [No. 188, 3,7-Dichloro-5-cyclopropylmethoxy-5-difluoromethyl-5,10-dihydro-benzo[b][1,8]naphthyridine 1-oxide]	163 to 164
[O-][n+]1cccc2c1Nc1ccc(Cl)cc1C2(OCCC1CC1)C(F)F (stereo not drawn) [No. 186, 7—Chloro-5-(2-cyclopropyl-ethoxy)-5-difluoromethyl-5,10-dihydro-benzo[b][1,8]naphthyridine 1-oxide]	175 to 176
[O-][n+]1cccc2c1Nc1ccc(F)cc1C2(OCC1CC1)C(F)F (stereo not drawn) [No. 185, 7-Fluoro-5-cyclopropylmethoxy-5-difluoromethyl-5,10-dihydro-benzo[b][1,8]naphthyridine 1-oxide]	166 to 167

Continued, values first:

melting point [°C]	Structure (SMILES)
210 to 211	[O-][n+]1cccc2c1Nc1ccc(Cl)cc1C2(Cc1ccccn1)C(F)F (stereo not drawn) [No. 187, 7—Chloro-5-pyridin-2-ylmethyl-5-difluoromethyl-5,10-dihydro-benzo[b][1,8]naphthyridine 1-oxide]
157 to 158	CC(C)N(C)CC1(C(F)(F)F)c2cc(Cl)ccc2Nc2ncccc21 (stereo not drawn) [No. 93]
137 to 138	Fc1ccc2c(c1)C(OCC1CC1)(C(F)F)c1cccnc1N2 (stereo not drawn) [No. 180, 7-Fluoro-5-cyclopropylmethoxy-5-difluoromethyl-5,10-dihydro-benzo[b][1,8]naphthyridine]
204 to 205	FC(F)C1(Cc2ccccn2)c2cc(Cl)ccc2Nc2ncccc21 (stereo not drawn) [No. 182, 7-Chloro-5-pyridin-2-ylmethyl-5-difluoromethyl-5,10-dihydro-benzo[b][1,8]naphthyridine]
110 to 111	CCN(CC)CC1(C(F)(F)F)c2cc(Cl)ccc2Nc2ncccc21 (stereo not drawn) [No. 94, 7-Chloro-5-(N,N-diethylaminomethyl)-5,10-dihydro-5-(trifluoromethyl)benzo[b][1,8]napthyridine]
148 to 149	FC(F)C1(OCCC2CC2)c2cc(Cl)ccc2Nc2ncccc21 (stereo not drawn) [No. 181, 7-Chloro-5-(2-cyclopropyl-ethoxy)-5-difluoromethyl-5,10-dihydro-benzo[b][1,8]naphthyridine]
